Reference: article PMC11357990, “A first-in-class selective inhibitor of EGFR and PI3K offers a single-molecule approach to targeting adaptive resistance” (Nature Cancer, 2024)

Assays:
HER2 = molecular target: T1, HER2 (Homo sapiens, UniProt P04626); assay: biochemical; parameters: Purified kinase inhibition, Z'-LYTE (HER, mTOR, DNA-PK) or Adapta (PI3K), ATP at Km apparent
T1 construct: gene ERBB2; Km ATP
Experimental: (§1) IC50 values were determined at a concentration of ATP corresponding to the Km apparent for that kinase.

HER4 = molecular target: T2, HER4 (Homo sapiens, UniProt Q15303); assay: biochemical; parameters: Purified kinase inhibition, Z'-LYTE (HER, mTOR, DNA-PK) or Adapta (PI3K), ATP at Km apparent
T2 construct: gene ERBB4; Km ATP
T2 sequence (Q15303 whole entry): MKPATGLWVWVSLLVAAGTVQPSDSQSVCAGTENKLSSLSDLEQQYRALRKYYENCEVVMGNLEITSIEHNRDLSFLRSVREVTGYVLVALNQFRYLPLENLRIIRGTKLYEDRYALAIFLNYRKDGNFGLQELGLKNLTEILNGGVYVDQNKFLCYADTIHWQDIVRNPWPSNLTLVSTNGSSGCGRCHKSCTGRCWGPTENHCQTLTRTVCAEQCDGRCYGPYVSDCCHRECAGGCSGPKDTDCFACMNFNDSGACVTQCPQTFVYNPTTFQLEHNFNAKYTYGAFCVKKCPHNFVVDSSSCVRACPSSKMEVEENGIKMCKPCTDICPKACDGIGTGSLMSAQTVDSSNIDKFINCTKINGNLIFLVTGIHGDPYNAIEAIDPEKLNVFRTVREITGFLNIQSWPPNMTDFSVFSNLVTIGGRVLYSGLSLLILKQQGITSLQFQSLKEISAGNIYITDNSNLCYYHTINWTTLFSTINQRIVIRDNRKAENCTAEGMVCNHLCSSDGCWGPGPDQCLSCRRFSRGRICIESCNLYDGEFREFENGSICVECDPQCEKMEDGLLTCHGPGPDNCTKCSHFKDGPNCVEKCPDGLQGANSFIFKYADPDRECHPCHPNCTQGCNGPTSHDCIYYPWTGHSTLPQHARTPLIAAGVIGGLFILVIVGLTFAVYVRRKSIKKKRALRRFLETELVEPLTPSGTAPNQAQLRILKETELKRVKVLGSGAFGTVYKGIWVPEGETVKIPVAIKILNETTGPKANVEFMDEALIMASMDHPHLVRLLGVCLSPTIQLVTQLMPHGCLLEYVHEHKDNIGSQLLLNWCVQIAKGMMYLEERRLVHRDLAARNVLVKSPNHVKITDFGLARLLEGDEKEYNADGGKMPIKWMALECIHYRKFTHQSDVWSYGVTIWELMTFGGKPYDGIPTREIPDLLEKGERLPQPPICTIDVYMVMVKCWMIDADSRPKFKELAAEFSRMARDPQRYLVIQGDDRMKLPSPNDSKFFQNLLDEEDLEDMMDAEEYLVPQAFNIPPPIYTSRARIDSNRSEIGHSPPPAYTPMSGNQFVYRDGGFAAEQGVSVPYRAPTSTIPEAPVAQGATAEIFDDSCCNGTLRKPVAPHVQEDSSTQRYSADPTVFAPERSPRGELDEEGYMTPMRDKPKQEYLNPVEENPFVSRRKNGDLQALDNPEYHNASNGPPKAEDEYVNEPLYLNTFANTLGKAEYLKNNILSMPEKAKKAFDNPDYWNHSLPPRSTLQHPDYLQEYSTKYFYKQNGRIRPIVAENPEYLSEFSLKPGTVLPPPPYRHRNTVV
Experimental: as §1

mTOR = molecular target: T3, mTOR (Homo sapiens, UniProt P42345); assay: biochemical; parameters: Purified kinase inhibition, Z'-LYTE (HER, mTOR, DNA-PK) or Adapta (PI3K), ATP at Km apparent
T3 construct: Km ATP
Experimental: as §1

EGFR = EGFR (Homo sapiens, UniProt P00533); assay: biochemical; parameters: Km ATP; Purified kinase inhibition, Z'-LYTE (HER, mTOR, DNA-PK) or Adapta (PI3K), ATP at Km apparent
Chain of EGFR (P00533 whole entry): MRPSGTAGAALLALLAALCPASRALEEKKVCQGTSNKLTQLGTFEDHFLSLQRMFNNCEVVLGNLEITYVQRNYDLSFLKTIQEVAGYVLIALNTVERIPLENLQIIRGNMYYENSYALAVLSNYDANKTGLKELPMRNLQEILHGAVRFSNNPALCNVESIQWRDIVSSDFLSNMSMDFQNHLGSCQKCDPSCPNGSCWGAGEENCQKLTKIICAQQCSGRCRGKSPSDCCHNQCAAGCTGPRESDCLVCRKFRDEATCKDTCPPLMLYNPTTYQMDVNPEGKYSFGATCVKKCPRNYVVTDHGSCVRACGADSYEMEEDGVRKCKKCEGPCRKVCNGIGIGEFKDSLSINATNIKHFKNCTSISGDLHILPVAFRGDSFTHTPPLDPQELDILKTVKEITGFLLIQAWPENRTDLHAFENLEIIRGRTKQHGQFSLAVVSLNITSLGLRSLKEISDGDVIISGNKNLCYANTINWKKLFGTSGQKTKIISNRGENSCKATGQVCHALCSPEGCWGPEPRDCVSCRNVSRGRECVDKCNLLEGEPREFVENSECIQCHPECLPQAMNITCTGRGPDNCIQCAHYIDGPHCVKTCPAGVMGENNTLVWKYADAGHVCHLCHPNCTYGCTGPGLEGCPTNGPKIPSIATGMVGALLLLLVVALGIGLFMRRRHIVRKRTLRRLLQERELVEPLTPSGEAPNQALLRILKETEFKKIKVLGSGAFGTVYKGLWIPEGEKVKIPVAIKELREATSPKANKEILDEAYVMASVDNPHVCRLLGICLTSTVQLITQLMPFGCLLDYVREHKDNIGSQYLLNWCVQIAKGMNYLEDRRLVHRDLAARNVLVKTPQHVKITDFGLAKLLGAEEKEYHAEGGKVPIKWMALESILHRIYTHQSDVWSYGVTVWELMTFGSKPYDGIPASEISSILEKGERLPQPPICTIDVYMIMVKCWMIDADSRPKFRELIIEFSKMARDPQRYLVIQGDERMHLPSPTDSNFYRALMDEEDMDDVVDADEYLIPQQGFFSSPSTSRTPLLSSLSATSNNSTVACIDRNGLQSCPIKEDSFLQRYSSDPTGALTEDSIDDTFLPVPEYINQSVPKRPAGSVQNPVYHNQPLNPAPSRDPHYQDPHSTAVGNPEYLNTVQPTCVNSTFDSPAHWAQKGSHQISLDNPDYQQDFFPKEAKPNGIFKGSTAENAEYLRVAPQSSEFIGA
Experimental: as §1

PI3Kβ = molecular target: T4, PI3Kβ (Homo sapiens, UniProt P42338); assay: biochemical; parameters: Purified kinase inhibition, Z'-LYTE (HER, mTOR, DNA-PK) or Adapta (PI3K), ATP at Km apparent
T4 construct: gene PIK3CB; Km ATP
Experimental: as §1

PI3Kδ = molecular target: T5, PI3Kδ (Homo sapiens, UniProt O00329); assay: biochemical; parameters: Purified kinase inhibition, Z'-LYTE (HER, mTOR, DNA-PK) or Adapta (PI3K), ATP at Km apparent
T5 construct: gene PIK3CD; Km ATP
Experimental: as §1

PI3Kα = PI3Kα (Homo sapiens, UniProt P42336); assay: biochemical; parameters: gene PIK3CA; Km ATP; Purified kinase inhibition, Z'-LYTE (HER, mTOR, DNA-PK) or Adapta (PI3K), ATP at Km apparent
Experimental: as §1

PI3Kγ [1] = molecular target: T6, PI3Kγ (Homo sapiens, UniProt P48736); assay: biochemical; parameters: gene PIK3CG; Km ATP; Purified kinase inhibition, Z'-LYTE (HER, mTOR, DNA-PK) or Adapta (PI3K), ATP at Km apparent
T6 sequence (P48736 whole entry): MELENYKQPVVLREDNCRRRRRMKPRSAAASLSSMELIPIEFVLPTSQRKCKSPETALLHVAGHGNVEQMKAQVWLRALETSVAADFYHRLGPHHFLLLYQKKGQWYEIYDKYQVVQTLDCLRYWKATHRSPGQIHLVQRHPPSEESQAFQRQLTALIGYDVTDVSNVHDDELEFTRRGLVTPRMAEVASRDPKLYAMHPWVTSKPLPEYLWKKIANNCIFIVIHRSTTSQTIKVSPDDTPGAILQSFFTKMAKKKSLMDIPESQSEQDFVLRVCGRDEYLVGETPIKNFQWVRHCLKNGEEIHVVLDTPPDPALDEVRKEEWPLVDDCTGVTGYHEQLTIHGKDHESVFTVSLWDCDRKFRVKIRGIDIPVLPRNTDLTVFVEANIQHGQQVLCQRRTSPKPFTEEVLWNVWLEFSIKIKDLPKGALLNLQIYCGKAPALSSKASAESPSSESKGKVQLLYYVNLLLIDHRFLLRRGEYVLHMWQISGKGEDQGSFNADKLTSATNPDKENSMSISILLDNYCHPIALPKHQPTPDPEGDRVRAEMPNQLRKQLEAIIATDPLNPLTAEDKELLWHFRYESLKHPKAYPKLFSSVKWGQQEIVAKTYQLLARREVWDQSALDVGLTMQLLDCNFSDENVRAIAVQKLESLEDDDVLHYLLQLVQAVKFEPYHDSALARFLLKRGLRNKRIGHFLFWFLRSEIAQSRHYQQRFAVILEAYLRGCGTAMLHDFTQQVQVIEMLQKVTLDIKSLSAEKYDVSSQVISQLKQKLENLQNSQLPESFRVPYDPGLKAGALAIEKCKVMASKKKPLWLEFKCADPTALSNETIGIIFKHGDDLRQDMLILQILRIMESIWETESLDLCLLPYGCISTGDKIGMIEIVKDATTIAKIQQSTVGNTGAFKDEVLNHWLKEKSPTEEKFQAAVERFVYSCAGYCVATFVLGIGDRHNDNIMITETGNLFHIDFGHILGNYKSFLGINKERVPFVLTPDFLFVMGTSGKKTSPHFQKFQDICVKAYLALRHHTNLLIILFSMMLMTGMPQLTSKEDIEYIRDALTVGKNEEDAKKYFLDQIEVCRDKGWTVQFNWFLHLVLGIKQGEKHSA
Experimental: as §1

PI3Kγ [2] = molecular target: T6, PI3Kγ; assay: biochemical kinase assay at ATP Km apparent; parameters: gene PIK3CG

T1 sequence (P04626 whole entry): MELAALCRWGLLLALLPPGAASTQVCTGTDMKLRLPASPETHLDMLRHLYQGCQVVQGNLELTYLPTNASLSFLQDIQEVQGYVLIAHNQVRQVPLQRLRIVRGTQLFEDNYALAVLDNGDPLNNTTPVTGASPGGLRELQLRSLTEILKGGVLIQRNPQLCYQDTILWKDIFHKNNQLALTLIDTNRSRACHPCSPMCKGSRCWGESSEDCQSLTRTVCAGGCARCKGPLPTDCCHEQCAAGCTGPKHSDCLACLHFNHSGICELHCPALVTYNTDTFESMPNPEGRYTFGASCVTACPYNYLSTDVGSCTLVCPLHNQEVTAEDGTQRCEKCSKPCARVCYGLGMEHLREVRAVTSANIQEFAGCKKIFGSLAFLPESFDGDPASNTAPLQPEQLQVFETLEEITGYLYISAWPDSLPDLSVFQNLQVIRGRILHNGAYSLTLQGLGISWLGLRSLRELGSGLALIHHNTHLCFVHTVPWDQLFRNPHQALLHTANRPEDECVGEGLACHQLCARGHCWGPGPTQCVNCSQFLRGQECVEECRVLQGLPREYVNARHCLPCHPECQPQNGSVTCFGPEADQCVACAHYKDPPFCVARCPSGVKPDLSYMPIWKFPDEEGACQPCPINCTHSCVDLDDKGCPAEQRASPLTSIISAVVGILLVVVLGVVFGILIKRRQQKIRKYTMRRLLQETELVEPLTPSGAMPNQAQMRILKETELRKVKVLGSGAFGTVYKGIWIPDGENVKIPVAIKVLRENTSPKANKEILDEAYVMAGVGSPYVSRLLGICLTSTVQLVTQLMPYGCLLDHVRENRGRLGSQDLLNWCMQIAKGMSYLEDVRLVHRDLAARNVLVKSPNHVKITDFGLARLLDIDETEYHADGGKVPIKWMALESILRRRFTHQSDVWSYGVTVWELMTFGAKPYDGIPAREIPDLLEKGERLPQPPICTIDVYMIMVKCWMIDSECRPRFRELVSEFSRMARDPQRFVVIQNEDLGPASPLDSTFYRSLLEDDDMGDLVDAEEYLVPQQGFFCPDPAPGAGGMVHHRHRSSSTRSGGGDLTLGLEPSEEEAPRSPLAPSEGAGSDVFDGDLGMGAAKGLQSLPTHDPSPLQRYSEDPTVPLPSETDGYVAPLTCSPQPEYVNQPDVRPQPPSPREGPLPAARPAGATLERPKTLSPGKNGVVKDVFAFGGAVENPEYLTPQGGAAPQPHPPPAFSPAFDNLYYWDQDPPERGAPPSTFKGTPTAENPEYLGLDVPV

IC50 (HER2) [µM]	IC50 (HER4) [µM]	IC50 (mTOR) [µM]	IC50 (EGFR) [µM]	IC50 (PI3Kβ) [µM]	IC50 (PI3Kδ) [µM]	IC50 (PI3Kα) [µM]	IC50 (PI3Kγ [1]) [µM]	IC50 (PI3Kγ [2]) [µM]	SMILES
> 10	> 10	2.94	> 10	–	–	–	–	–	Cc1nc(NC(=O)N2CCC[C@H]2C(N)=O)sc1-c1ccnc(C(C)(C)C(F)(F)F)c1 [Alpelisib]
> 10	> 10	0.0188	> 10	–	–	–	–	–	COc1c(OCCCN2CCOCC2)ccc2c1N=C(NC(=O)c1cnc(N)nc1)N1CCN=C21 [Copanlisib]
0.0261	0.221	> 10	–	> 10	> 10	> 10	> 10	–	CCN1CCN(Cc2ccc(-c3cc4c(N[C@H](C)c5ccccc5)ncnc4[nH]3)cc2)CC1 [NVP-AEE788]
> 10	> 10	–	> 10	–	–	–	–	0.00062	COc1ncc(-c2ccc3nccc(-c4ccnnc4)c3c2)cc1NS(=O)(=O)c1ccc(F)cc1F [Omipalisib]
